Data reported in patent US20220372013A2, “PIPERIDINE-2,6-DIONE DERIVATIVES AND CROHN'S DISEASE TREATING” (Tianjin Hemay Pharmaceutical Sci-Tech Co., Ltd, priority 2016, published 2022).
Where two headings read alike, the source gives them in different places. Marks after values point to notes of the source that are not given here.

Experiments:
[1] = system: DNBS-Induced Inflammatory Bowel Disease Models in Rats; experiment: Biological Example 3: DNBS-induced inflammatory bowel disease models in rats; type: in vivo, Wistar rats; conditions: 30 mg/Kg i.g. qd × 7; for Adhesion Degree of Colon / Colon weight to length ratio / Inhibitory rate of colon adhesion / Inhibitory rate of ulcer area of colon / Inhibitory rate of weight increase per length / Ulcer area of colon: day 7; for Body weight: Mean ± SD
Experimental: (§1) 102 male Wistar rats were fasted for 40 hours. A 5% glucose injection (10 mL/Kg) was administered subcutaneously during fasting. 72 rats with normal conditions and moderate body weight were selected from the fasting rats. The animals were randomly divided into 9 groups according to the body weight (see Table 9. Grouped Table).
(§2) The animals were anesthetized with ether after 40 hours fasting. A specially made gavage device was slowly inserted into the enteric cavity at 8 cm from the anus. The model control group and each test group were administered with 0.5 mL of 50 mg/mL DNBS in 30% ethanol solution. The normal control group was administered with 0.5 mL of 30% ethanol solution. The animals were inverted in anesthesia for 15 minutes. The day when the model was prepared was day 0 of the experiment. After 4 hours of DNBS induction, the corresponding drug or the corresponding volume of 1% CMC-Na was administered once per day. On day 7 of the experiment, the animals were euthanized to score the colon adhesion degree, measure the length of colon and ulcer area, weigh colon and calculate the colon weight to length ratio.
(§3) One-way ANOVA analysis of the length of colon and colon weight per length of rats was performed by SPSS22. Statistical analyses between groups were performed. The adhesion degree was scored. Mann-Whitney U non-parametric test was performed on ulcer area. Statistical analyses between groups were performed.
(§4) Calculation Formula of Inhibitory rate of weight increase per length: (Colon weight to length ratio in model group−Colon weight to length ratio in administration group)/(Colon weight to length ratio in model group−Colon weight to length ratio in blank group)

mice = experiment: Biological Example 5: acute toxicity experiment of single oral administration in mice; type: in vivo; conditions: single oral 1000 mg/Kg, Mean ± SD
Experimental: The mice were fasted one day before the experiment. On the day of the experiment, 6 mice (ICR mice, body weight of 19-21 g, three females and three males) were selected in each experiment group. First of all, one female and one male were selected to orally give 1000 mg/Kg, and observed for 5-10 minutes. If there were no obvious side effects, the remaining 4 animals were orally given the same dose, and observed for 10-15 minutes. If no animal died, the animals were placed in a box to balancedly feed for 7 days. The state was observed and the body weight was recorded daily.
Observation Indexes within 0-15 Minutes after Administration
Activity: restlessness, hyperactivity
Nervous system response: tremor, spasm, convulsion, ataxia, posture abnormality, etc.
Autonomic nerve: exophthalmos, salivation, tears, urination (hematuria), diarrhea, piloerection, breathing, etc.
State of Animal: lethargy, hyperactivity, excitement, hair loss, diarrhea, abnormal behavior, death, etc.

[2] = system: DNBS-Induced Inflammatory Bowel Disease Models in Rats; experiment: Biological Example 4: DNBS-induced inflammatory bowel disease models in rats; type: in vivo, Wistar rats; conditions: 30 mg/Kg i.g. qd × 7; for Adhesion Degree of Colon / Colon weight to length ratio / Ulcer area of colon / inhibition in vivo at 30 mg/kg: day 7; for Body weight: Mean ± SD; for inhibition in vivo at 30 mg/kg: Rattus norvegicus, po, 168 h
Experimental: as §1, with “72” for “40”, “injection” for “injection (10 mL/Kg)”, “subcutaneously twice” for “subcutaneously”, “88” for “72”, “11” for “9”, “11.” for “9.”
as §2, with “72” for “40”
as §3, §4

[3] = read-out: Inhibitory rate of colon adhesion
[4] = read-out: Inhibitory rate of ulcer area of colon
[5] = read-out: Inhibitory rate of weight increase per length

Nc1cccc2c1C(=O)N(C1CCC(=O)N(CCO)C1=O)C2=O (stereo not shown) [Example 6, 4-amino-2-(1-(2-hydroxyethyl)-2,6-dioxopiperidin-3-yl)isoindolin-1,3-dione]
Adhesion Degree of Colon [1]: 0.6 ± 0.5 point
Colon weight to length ratio [1]: 99 ± 21 mg/cm
Inhibitory rate of colon adhesion [1]: 64.7# %
Inhibitory rate of ulcer area of colon [1]: 89.0# %
Inhibitory rate of weight increase per length [1]: 70.9## %
Ulcer area of colon [1]: 0.34 ± 0.54# cm^2
Body weight ([1]; Day 0): 137.5 ± 5.6 g
Body weight ([1]; Day 1): 138.1 ± 8.0 g
Body weight ([1]; Day 2): 141.8 ± 13.1 g
Body weight ([1]; Day 3): 147.4 ± 16.5 g
Body weight ([1]; Day 4): 154.5 ± 17.7 g
Body weight ([1]; Day 5): 164.2 ± 16.2 g
Body weight ([1]; Day 6): 169.3 ± 18.4 g
Body weight ([1]; Day 7): 180.9 ± 15.5 g
Daily Body Weight (mice; Female mice, Day 1): 17.5 ± 0.9 g
Daily Body Weight (mice; Female mice, Day 2): 21.5 ± 0.9 g
Daily Body Weight (mice; Female mice, Day 3): 21.6 ± 1.3 g
Daily Body Weight (mice; Female mice, Day 4): 22.0 ± 1.2 g
Daily Body Weight (mice; Female mice, Day 5): 22.3 ± 1.9 g
Daily Body Weight (mice; Female mice, Day 6): 22.4 ± 2.3 g
Daily Body Weight (mice; Female mice, Day 7): 22.9 ± 2.0 g
Daily Body Weight (mice; Male mice, Day 1): 18.4 ± 0.6 g
Daily Body Weight (mice; Male mice, Day 2): 21.5 ± 0.9 g
Daily Body Weight (mice; Male mice, Day 3): 21.6 ± 1.3 g
Daily Body Weight (mice; Male mice, Day 4): 25.5 ± 0.5 g
Daily Body Weight (mice; Male mice, Day 5): 25.9 ± 0.9 g
Daily Body Weight (mice; Male mice, Day 6): 26.9 ± 1.1 g
Daily Body Weight (mice; Male mice, Day 7): 27.1 ± 1.1 g

COCCN1C(=O)CCC(N2C(=O)c3c(N)ccc(O)c3C2=O)C1=O (stereo not shown) [Example 10, 4-amino-7-hydroxy-2-(1-(2-methoxyethyl)-2,6-dioxopiperidin-3-yl)isoindolin-1,3-dione]
Daily Body Weight (mice; Female mice, Day 1): 19.2 ± 0.5 g
Daily Body Weight (mice; Female mice, Day 2): 21.9 ± 0.4 g
Daily Body Weight (mice; Female mice, Day 3): 22.4 ± 0.2 g
Daily Body Weight (mice; Female mice, Day 4): 22.4 ± 0.2 g
Daily Body Weight (mice; Female mice, Day 5): 22.9 ± 0.6 g
Daily Body Weight (mice; Female mice, Day 6): 24.1 ± 1.5 g
Daily Body Weight (mice; Female mice, Day 7): 24.2 ± 1.8 g
Daily Body Weight (mice; Male mice, Day 1): 19.4 ± 0.3 g
Daily Body Weight (mice; Male mice, Day 2): 24.4 ± 0.6 g
Daily Body Weight (mice; Male mice, Day 3): 25.5 ± 0.9 g
Daily Body Weight (mice; Male mice, Day 4): 25.5 ± 0.9 g
Daily Body Weight (mice; Male mice, Day 5): 26.8 ± 0.9 g
Daily Body Weight (mice; Male mice, Day 6): 29.2 ± 0.7 g
Daily Body Weight (mice; Male mice, Day 7): 30.3 ± 0.7 g
Adhesion Degree of Colon [2]: 0.5 ± 0.5 point
Colon weight to length ratio [2]: 93 ± 12 mg/cm
Ulcer area of colon [2]: 0.2 ± 0.5# cm^2
Body weight ([2]; Day 1): 122.4 ± 6.7 g
Body weight ([2]; Day 2): 122.1 ± 8.0 g
Body weight ([2]; Day 3): 126.6 ± 9.8 g
Body weight ([2]; Day 4): 136.9 ± 12.5 g
Body weight ([2]; Day 5): 143.7 ± 18.2 g
Body weight ([2]; Day 6): 144.9 ± 19.7 g
Body weight ([2]; Day 7): 160.8 ± 25.7 g
inhibition in vivo at 30 mg/kg [2, 3]: 81.1%
inhibition in vivo at 30 mg/kg [2, 4]: 91.7%
inhibition in vivo at 30 mg/kg [2, 5]: 81.2%

COCCN1C(=O)CCC(N2C(=O)c3ccc(F)cc3C2=O)C1=O (stereo not shown) [Example 21, 5-fluoro-2-(1-(2-methoxyethyl)-2,6-dioxopiperidin-3-yl)-isoindolin-1,3-dione]
Adhesion Degree of Colon [1]: 0.9 ± 0.7 point
Colon weight to length ratio [1]: 104 ± 17 mg/cm
Inhibitory rate of colon adhesion [1]: 47.1# %
Inhibitory rate of ulcer area of colon [1]: 70.0%
Inhibitory rate of weight increase per length [1]: 64.6## %
Ulcer area of colon [1]: 0.93 ± 1.52 cm^2
Body weight ([1]; Day 0): 135.6 ± 6.9 g
Body weight ([1]; Day 1): 134.4 ± 6.8 g
Body weight ([1]; Day 2): 133.9 ± 6.8 g
Body weight ([1]; Day 3): 138.7 ± 6.8 g
Body weight ([1]; Day 4): 146.4 ± 6.9 g
Body weight ([1]; Day 5): 157.9 ± 8.9 g
Body weight ([1]; Day 6): 168.3 ± 4.6 g
Body weight ([1]; Day 7): 173.5 ± 7.4 g

COCCCN1C(=O)CCC(N2C(=O)c3cccc(NC(C)=O)c3C2=O)C1=O (stereo not shown) [Example 16, 4-acetylamino-2-(1-(3-methoxypropyl)-2,6-dioxopiperidin-3-yl)isoindolin-1,3-dione]
Adhesion Degree of Colon [1]: 1.1 ± 0.8 point
Colon weight to length ratio [1]: 114 ± 23 mg/cm
Inhibitory rate of colon adhesion [1]: 35.3%
Inhibitory rate of ulcer area of colon [1]: 72.8# %
Inhibitory rate of weight increase per length [1]: 51.9# %
Ulcer area of colon [1]: 0.84 ± 1.25# cm^2
Body weight ([1]; Day 0): 137.3 ± 1.7 g
Body weight ([1]; Day 1): 135.9 ± 3.7 g
Body weight ([1]; Day 2): 137.6 ± 7.0 g
Body weight ([1]; Day 3): 145.0 ± 9.2 g
Body weight ([1]; Day 4): 155.2 ± 10.9 g
Body weight ([1]; Day 5): 166.8 ± 10.2 g
Body weight ([1]; Day 6): 171.5 ± 15.1 g
Body weight ([1]; Day 7): 184.3 ± 13.8 g

COCCN1C(=O)CCC(N2C(=O)c3cccc(O)c3C2=O)C1=O (stereo not shown) [Example 23, 4-hydroxy-2-(1-(2-methoxyethyl)-2,6-dioxopiperidin-3-yl)isoindolin-1,3-dione]
Daily Body Weight (mice; Female mice, Day 1): 19.1 ± 0.6 g
Daily Body Weight (mice; Female mice, Day 2): 22.4 ± 0.4 g
Daily Body Weight (mice; Female mice, Day 3): 23.0 ± 0.1 g
Daily Body Weight (mice; Female mice, Day 4): 23.0 ± 0.1 g
Daily Body Weight (mice; Female mice, Day 5): 24.6 ± 0.4 g
Daily Body Weight (mice; Female mice, Day 6): 24.8 ± 0.7 g
Daily Body Weight (mice; Female mice, Day 7): 24.6 ± 0.4 g
Daily Body Weight (mice; Male mice, Day 1): 19.4 ± 0.8 g
Daily Body Weight (mice; Male mice, Day 2): 24.6 ± 1.2 g
Daily Body Weight (mice; Male mice, Day 3): 24.5 ± 0.6 g
Daily Body Weight (mice; Male mice, Day 4): 24.5 ± 0.6 g
Daily Body Weight (mice; Male mice, Day 5): 25.4 ± 1.2 g
Daily Body Weight (mice; Male mice, Day 6): 28.1 ± 0.8 g
Daily Body Weight (mice; Male mice, Day 7): 29.0 ± 0.8 g
Adhesion Degree of Colon [2]: 0.8 ± 0.7 point
Colon weight to length ratio [2]: 105 ± 12 mg/cm
Ulcer area of colon [2]: 0.2 ± 0.3# cm^2
Body weight ([2]; Day 1): 126.6 ± 8.5 g
Body weight ([2]; Day 2): 123.2 ± 9.0 g
Body weight ([2]; Day 3): 123.9 ± 7.6 g
Body weight ([2]; Day 4): 136.5 ± 11.8 g
Body weight ([2]; Day 5): 148.1 ± 14.5 g
Body weight ([2]; Day 6): 152.1 ± 15.9 g
Body weight ([2]; Day 7): 166.8 ± 12.8 g
inhibition in vivo at 30 mg/kg [2, 3]: 62.2%
inhibition in vivo at 30 mg/kg [2, 4]: 91.7%
inhibition in vivo at 30 mg/kg [2, 5]: 67.1%

COCCN1C(=O)CCC(N2C(=O)c3ccc(N)cc3C2=O)C1=O (stereo not shown) [Example 7, 5-amino-2-(1-(2-methoxyethyl)-2,6-dioxopiperidin-3-yl)isoindolin-1,3-dione]
Adhesion Degree of Colon [1]: 0.9 ± 0.8 point
Colon weight to length ratio [1]: 127 ± 52 mg/cm
Inhibitory rate of colon adhesion [1]: 47.1# %
Inhibitory rate of ulcer area of colon [1]: 75.1%
Inhibitory rate of weight increase per length [1]: 35.4%
Ulcer area of colon [1]: 0.77 ± 1.05 cm^2
Body weight ([1]; Day 0): 136.1 ± 2.5 g
Body weight ([1]; Day 1): 136.7 ± 3.7 g
Body weight ([1]; Day 2): 137.0 ± 8.7 g
Body weight ([1]; Day 3): 141.6 ± 11.9 g
Body weight ([1]; Day 4): 148.2 ± 12.7 g
Body weight ([1]; Day 5): 159.2 ± 13.2 g
Body weight ([1]; Day 6): 168.0 ± 15.7 g
Body weight ([1]; Day 7): 173.5 ± 18.5 g
